SMILES strings stand for the structures.

The target in one test is T1, IL-17A/A (Homo sapiens, UniProt Q16552).
T1 construct: purchased Genscript Z03228
T1 sequence (Q16552 24-155): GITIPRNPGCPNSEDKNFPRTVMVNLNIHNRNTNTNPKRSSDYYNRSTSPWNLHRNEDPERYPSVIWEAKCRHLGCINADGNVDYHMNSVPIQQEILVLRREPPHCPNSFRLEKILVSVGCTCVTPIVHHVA
Nature of the test: IL-17A/A HEK-Blue Cell Assay. In kind it is cell-based. As to conditions: HEK-Blue IL-17A reporter cell line, SEAP readout at A630, 20 hours incubation with IL-17A/A; top concentration 10 uM, 1 uM or 0.3 uM.
Take `CCC(=O)N[C@@H](C(=O)N1CCN(C)CC1)[C@@H](C)c1ccc(NC(=O)[C@@H](NC(=O)C(F)(F)C2CCOCC2)[C@H]2CC[C@H](C)CC2)c(F)c1` [Compound 660]: the “IL-17A/A inhibition (pIC50)” value is “X3a (compounds were evaluated up to 0.3 uM and did not inhibit activity by >80%, however they showed some activity at 0.3 uM (less than 80% and more than 20%))”.

For the compound `CCC(=O)N[C@@H](C(=O)O)[C@@H](C)c1ccc(NC(=O)[C@@H](NC(=O)c2ccnn2CC)[C@H]2CC[C@H](C)CC2)c(F)c1` [Compound 661], the “IL-17A/A inhibition (pIC50)” value is “X3b (compounds were evaluated up to 0.3 uM and inhibited activity at 0.3 uM by less than 20%)”.

Turning to `CCC(=O)NC(C(=O)N1CCN(C(C)C)CC1)[C@@H](C)c1ccc(NC(=O)[C@@H](NC(=O)c2ccnn2CC)[C@H]2CC[C@H](C)CC2)c(F)c1` (some centres unmarked) [Compound 664], the “IL-17A/A inhibition (pIC50)” value is “X3b (compounds were evaluated up to 0.3 uM and inhibited activity at 0.3 uM by less than 20%)”.

The test is the same for the next values; noted with them: HEK-Blue IL-17A reporter cell line, SEAP readout at A630, 20 hours incubation with IL-17A/A; top concentration 10 uM, 1 uM or 0.3 uM; read-out: IL-17A/A inhibition (pIC50) (converted).
Turning to `CCC(=O)N[C@@H](C(=O)N1CCN(C)CC1)[C@@H](C)c1ccc(NC(=O)[C@@H](NC(=O)C(=O)c2ccc(NS(C)(=O)=O)nc2)C2CCCCCC2)c(F)c1` [Compound 626], the IC50 is 0.1 to 10 µM.

For the compound `CCC(=O)N[C@H](Cc1ccc(NC(=O)[C@@H](NC(=O)c2ccnn2CC)[C@H]2CC[C@H](C)CC2)c(F)c1)C(=O)N1CCN(C)CC1` [Compound 627], the IC50 was 0.1 to 10 µM.

Turning to `CCn1nccc1C(=O)N[C@H](C(=O)Nc1ccc([C@H](C)[C@@H](NC(=O)NC2CCC2)C(=O)N2CCN(C)CC2)cc1F)C1CCCCC1` [Compound 628], the IC50 is 0.1 to 10 µM.

Consider `CCC(=O)N[C@@H](C(=O)N1CC(F)(F)C1)[C@@H](C)c1ccc(NC(=O)[C@@H](NC(=O)c2ccnn2CC)C2CCCCC2)c(F)c1` [Compound 629], for which the IC50 was 0.1 to 10 µM.

On to `CCC(=O)N[C@H](Cc1ccc(NC(=O)[C@@H](NC(=O)c2conc2CC)[C@H]2CC[C@H](C)CC2)c(F)c1)C(=O)N1CCN(C)CC1` [Compound 630], for which the IC50 was 0.1 to 10 µM.

Regarding `CCC(=O)N[C@@H](C(=O)N1CCN(C)CC1)[C@@H](C)c1ccc(NC(=O)[C@@H](NC(=O)c2csc3ccncc23)C2CCCCC2)c(F)c1` [Compound 631], the IC50 was 0.1 to 10 µM.

Consider `CCC(=O)N[C@H](Cc1ccc(NC(=O)[C@@H](NC(=O)c2coc3ccccc23)C2CCCCC2)c(F)c1)C(=O)N1CCN(C)CC1` [Compound 632], for which the IC50 was 0.1 to 10 µM.

Turning to `CCC(=O)N[C@@H](C(=O)N1CCN(C)CC1)[C@@H](C)c1ccc(NC(=O)[C@@H](NC(=O)c2ccnn2C(C)C)C2CCCCC2)cc1` [Compound 633], the IC50 is 0.1 to 10 µM.

As to `CCC(=O)N[C@H](Cc1ccc(NC(=O)C(NC(=O)c2ccnn2CC)C2CCc3ccccc3C2)c(F)c1)C(=O)N1CCN(C)CC1` (some centres unmarked) [Compound 634], the IC50 is 0.1 to 10 µM.

For the compound `CCn1nccc1C(=O)N[C@H](C(=O)Nc1ccc([C@H](C)[C@@H](NC(=O)c2ccc(C)s2)C(=O)N2CCN(C)CC2)cc1F)C1CCCCC1` [Compound 635], the IC50 is 0.1 to 10 µM.

For the compound `CCn1nccc1C(=O)N[C@H](C(=O)Nc1ccc([C@H](C)[C@@H](NC(=O)NC)C(=O)N2CCN(C)CC2)cc1F)C1CCCCC1` [Compound 636], the IC50 is 0.1 to 10 µM.

`CCC(=O)N[C@H](Cc1ccc(NC(=O)[C@@H](NC(=O)c2ccnn2C(C)C)C2CCCCC2)c(F)c1)C(=O)N1CCN(C)CC1` [Compound 637]: the IC50 is 0.1 to 10 µM.

Regarding `CCC(=O)N[C@@H](C(=O)N1CCN(C)CC1)[C@@H](C)c1ccc(NC(=O)[C@@H](NC(=O)C(F)(F)c2ccccc2C#N)C2CCCCC2)c(F)c1` [Compound 638], the IC50 was 0.1 to 10 µM.

As for `CCC(=O)N[C@@H](C(=O)N1CCN(C)CC1)[C@@H](C)c1ccc(NC(=O)[C@@H](NC(=O)c2ccnn2CC)C2CCCCC2)cc1` [Compound 639], the IC50 is 0.1 to 10 µM.

On to `CCC(=O)N[C@H](Cc1ccc(NC(=O)[C@@H](NC(=O)c2ccnn2CC)C2CCCCC2)c(F)c1)C(=O)N1CCN(Cc2ccccn2)CC1` [Compound 640], for which the IC50 is 0.1 to 10 µM.

With `CCC(=O)N[C@H](Cc1ccc(NC(=O)[C@@H](NC(=O)C(F)(F)c2cccc(NS(C)(=O)=O)c2)C2CCCCC2)c(F)c1)C(=O)N1CCN(C)CC1` [Compound 642], the IC50 was 0.1 to 10 µM.

On to `CCn1nccc1C(=O)N[C@H](C(=O)Nc1ccc([C@H](C)[C@@H](NC(=O)CC(F)(F)F)C(=O)N2CCN(C)CC2)cc1F)C1CCCCC1` [Compound 643], for which the IC50 is 0.1 to 10 µM.

For the compound `CCn1nccc1C(=O)N[C@H](C(=O)Nc1ccc([C@H](C)[C@@H](NC(=O)c2csnn2)C(=O)N2CCN(C)CC2)cc1F)C1CCCCC1` [Compound 644], the IC50 is 0.1 to 10 µM.

Turning to `CCC(=O)N[C@H](Cc1ccc(NC(=O)[C@@H](NC(=O)c2ccnn2CC)C2CCCCC2)c(F)c1)C(=O)N1CCN(C)CC1` [Compound 645], the IC50 was 0.1 to 10 µM.

`CCC(=O)N[C@H](Cc1ccc(NC(=O)[C@@H](NC(=O)c2ccnn2CC(C)C)C2CCCCC2)c(F)c1)C(=O)N1CCN(C)CC1` [Compound 646]: the IC50 was 0.1 to 10 µM.

On to `CCC(=O)N[C@H](Cc1ccc(NC(=O)[C@@H](NC(=O)c2ccnn2CC)[C@@H](C)c2ccccc2)c(F)c1)C(=O)N1CCN(C)CC1` [Compound 647], for which the IC50 is 0.1 to 10 µM.

As for `CCC(=O)N[C@H](Cc1ccc(NC(=O)[C@@H](NC(=O)c2ccnn2CC(F)(F)F)C2CCCCC2)c(F)c1)C(=O)N1CCN(C)CC1` [Compound 648], the IC50 was 0.1 to 10 µM.

`CCC(=O)N[C@@H](C(=O)N1CCN(C)CC1)[C@@H](C)c1ccc(NC(=O)[C@@H](NC(=O)c2ccnn2CC)[C@H]2CC[C@H](C(F)(F)F)CC2)c(F)c1` [Compound 649]: the IC50 was 0.1 to 10 µM.

As to `CCn1nccc1C(=O)N[C@H](C(=O)Nc1ccc(C[C@@H](NC(=O)CC2CC2)C(=O)N2CCN(C)CC2)cc1F)C1CCCCC1` [Compound 650], the IC50 is 0.1 to 10 µM.

On to `CCC(=O)N[C@H](Cc1ccc(NC(=O)[C@@H](NC(=O)c2ccnn2CC)C2CCCCC2)c(F)c1)C(=O)N1CCN(C(C)C)CC1` [Compound 651], for which the IC50 was 0.1 to 10 µM.

As for `CCC(=O)NC(Cc1ccc(NC(=O)[C@@H](NC(=O)c2ccnn2CC)C2CCCCC2)c(F)c1)C(=O)N1CCN(Cc2cccnc2)CC1` (some centres unmarked) [Compound 652], the IC50 is 0.1 to 10 µM.

Consider `CCC(=O)N[C@@H](C(=O)N1CCN(C)CC1)[C@@H](C)c1ccc(NC(=O)[C@@H](NC(=O)C(F)(F)C2CCN(C(C)=O)CC2)C2CCCCC2)c(F)c1` [Compound 653], for which the IC50 is 0.1 to 10 µM.

Turning to `CCn1nccc1C(=O)N[C@H](C(=O)Nc1ccc([C@H](C)[C@@H](NC(=O)c2cc(C#N)n[nH]2)C(=O)N2CCN(C)CC2)cc1F)C1CCCCC1` [Compound 655], the IC50 is 0.1 to 10 µM.

Consider `CCn1nccc1C(=O)N[C@H](C(=O)Nc1ccc([C@H](C)[C@@H](NC(=O)c2cc(C)no2)C(=O)N2CCN(C)CC2)cc1F)C1CCCCC1` [Compound 656], for which the IC50 is 0.1 to 10 µM.

For `CCn1nccc1C(=O)N[C@H](C(=O)Nc1ccc([C@H](C)[C@@H](NC(=O)c2cncn2C)C(=O)N2CCN(C)CC2)cc1F)C1CCCCC1` [Compound 657], the IC50 is 0.1 to 10 µM.

For the compound `CCn1nccc1C(=O)N[C@H](C(=O)Nc1ccc([C@H](C)[C@@H](NC(=O)CC#N)C(=O)N2CCN(C)CC2)cc1F)C1CCCCC1` [Compound 665], the IC50 is 0.1 to 10 µM.

Turning to `CCn1nccc1C(=O)N[C@H](C(=O)Nc1ccc([C@H](C)[C@@H](NC(=O)c2cc(C)n[nH]2)C(=O)N2CCN(C)CC2)cc1F)C1CCCCC1` [Compound 666], the IC50 is 0.1 to 10 µM.

As to `CCC(=O)N[C@H](Cc1ccc(NC(=O)[C@@H](NC(=O)c2ccnn2CC)C2CCCCC2)c(F)c1)C(=O)N1CC(N(C)C)C1` [Compound 667], the IC50 is 0.1 to 10 µM.

With `CCC(=O)N[C@H](Cc1ccc(NC(=O)[C@@H](NC(=O)c2ccnn2CC(F)F)C2CCCCC2)c(F)c1)C(=O)N1CCN(C)CC1` [Compound 669], the IC50 was 0.1 to 10 µM.

In the case of `CCC(=O)N[C@@H](C(=O)N1CCN(Cc2ccccc2)CC1)[C@H](C)c1ccc(NC(=O)[C@@H](NC(=O)c2ccnn2CC)C2CCCCC2)c(F)c1` [Compound 670], the IC50 was 0.1 to 10 µM.

As to `CCC(=O)N[C@H](Cc1ccc(NC(=O)[C@@H](NC(=O)c2coc3ccc(OC)cc23)C2CCCCC2)c(F)c1)C(=O)N1CCN(C)CC1` [Compound 671], the IC50 is 0.1 to 10 µM.

On to `CCC(=O)N[C@H](Cc1ccc(NC(=O)[C@@H](NC(=O)c2ccnn2C(C)C)C2CCC(F)(F)CC2)c(F)c1)C(=O)N1CCN(C)CC1` [Compound 672], for which the IC50 was 0.1 to 10 µM.

Consider `CCC(=O)N[C@@H](C(=O)N1CCN(C)CC1)[C@@H](C)c1ccc(NC(=O)[C@@H](NC(=O)C(F)(F)c2cccc(C#N)c2)C2CCOCC2)c(F)c1` [Compound 674], for which the IC50 was 0.1 to 10 µM.

In the case of `CCC(=O)N[C@H](Cc1ccc(NC(=O)[C@@H](NC(=O)c2ccnn2C2CC2)C2CCCCC2)c(F)c1)C(=O)N1CCN(C)CC1` [Compound 676], the IC50 was 0.1 to 10 µM.

Consider `CCn1nccc1C(=O)N[C@H](C(=O)Nc1ccc([C@H](C)[C@@H](NC(=O)c2cn[nH]c2)C(=O)N2CCN(C)CC2)cc1F)C1CCCCC1` [Compound 677], for which the IC50 is 0.1 to 10 µM.

Turning to `CCn1nccc1C(=O)N[C@H](C(=O)Nc1ccc([C@H](C)[C@@H](NC(=O)c2cnc(C)n2C)C(=O)N2CCN(C)CC2)cc1F)C1CCCCC1` [Compound 678], the IC50 was 0.1 to 10 µM.

`CCC(=O)N[C@H](Cc1ccc(NC(=O)[C@@H](NC(=O)c2ccnn2CC)C2CCCCC2)c(F)c1)C(=O)N1CCN(CCF)CC1` [Compound 679]: the IC50 was 0.1 to 10 µM.

On to `CCC(=O)N[C@@H](C(=O)N1CCN(C)CC1)[C@@H](CC)c1ccc(NC(=O)[C@@H](NC(=O)c2ccnn2CC)C2CCCCC2)cc1` [Compound 680], for which the IC50 was 0.1 to 10 µM.

Turning to `CCn1nccc1C(=O)N[C@H](C(=O)Nc1ccc([C@H](C)[C@@H](NC(=O)c2c[nH]c(=O)[nH]2)C(=O)N2CCN(C)CC2)cc1F)C1CCCCC1` [Compound 681], the IC50 is 0.1 to 10 µM.

The values above are taken from US12421212B2, “Substituted benzenecarboxamides as IL-17A modulators” (DiCE Alpha, Inc., priority 2019, dated 2025).
